From patent US20040224020A1, “Oral dosage forms with therapeutically active agents in controlled release cores and immediate release gelatin capsule coats” (priority 2002, published 2004)

Tests used:
[1] = Description: Where the controlled release core is in the form of a liquid, the amount and type of solvent used with SAIB should be optimized so as to obtain a liquid wherein the at least one therapeutically active agent is acceptably soluble.
In order to obtain a soluble liquid fill, the amounts of (i) SAIB, (ii) at least one biocompatible solvent, and (iii) at least one therapeutically active agent is optimized.

[2] = Viscosity of SAIB/solvent compositions, Cannon-Fenske viscometer; assay type: physicochemical; conditions: Cannon-Fenske viscometer of size 200 at 30° C.

Row | Structure (SMILES) | ethanol required to achieve solubility with SAIB [1] | viscosity (centipoises value) [2]
1 | CC(C)Cc1ccc(C(C)C(=O)O)cc1 (centres unmarked) [ibuprofen] | approximately 15 % (by weight) | 
2 | CCO [ethanol] |  | 1.3 centipoises
